The source of these data is patent US4062816A, “D-Ala^5 -somatostatin and intermediates thereto” (Eli Lilly and Company, priority 1976, dated 1977).

The subject of one assay is insulin. Description: inhibition of insulin secretion in dogs during L-alanine infusion. The assay is classed as in vivo, mongrel dogs. The settings on record: intravenous infusion 0.20-0.30 μg/kg/minute (D-Ala5-somatostatin 0.230 μg/kg/min.); fasted dogs. The protocol: (§1) The product from Example 4 also was tested for its activity in inhibiting glucagon and insulin secretion. Normal mongrel dogs of either sex were fasted overnight. Control blood samples were obtained, and then an intravenous infusion of saline, somatostatin, or D-Ala^5 -somatostatinwas started. After 30 minutes, L-alanine additionally was administered intravenously for a period of 15 minutes. The infusion of saline, somatostatin, of D-Ala^5 -somatostatin was continued for 15 minutes after completion of the alanine infusion. The total dose of somatostatin or D-Ala^5 -somatostatin which was infused is 200-500 μg/dog (0.20-0.30 μg/kg/ minute), and the total dose of L-alanine infused was 1 mmol.kg./15 minutes.

The next assay deals with glucagon. Description: inhibition of glucagon secretion in dogs during L-alanine infusion. The assay is classed as in vivo, mongrel dogs. The settings on record: intravenous infusion 0.20-0.30 μg/kg/minute (D-Ala5-somatostatin 0.230 μg/kg/min.); fasted dogs. The protocol: as §1
Another assay relates to growth hormone. As to the kind of experiment: inhibition of the release of growth hormone in pentobarbital-stimulated rats. The assay is classed as in vivo, Spraque-Dawley rats. Particulars: 50 μg./rat, subcutaneously; sodium pentobarbital-stimulated; relative to saline control group. The protocol: The product from Example 4 was tested for its activity in inhibiting the release of growth hormone. The procedure which was employed is carried out using mature male Spraque-Dawley rats (Laboratory Supply Company, Indianapolis, Ind.). The test is a modification of the method of P. Brazeau, W. Vale, and R. Guillemen, Endocrinology, 94 184 (1974). In this assay, three groups of eight rats each were employed. First, sodium pentobarbital was administered to all […] rats to stimulate growth hormone secretion. One of the groups of eight rats is the control group and received only saline. A second of the groups received somatostatin at 50 μg./rat, subcutaneously. The third group received D-Ala^5 -somatostatin at 50 μg./rat, subcutaneously. The degree of inhibition of serum growth hormone concentration then was determined with respect to the control group, and the relative activities of D-Ala^5 -somatostatin and somatostatin itself were compared. At a dose level of 50 μg./rat, D-Ala^5 -somatostatin inhibited the increase in serum growth hormone concentration by 40-50 percent, while somatostatin itself produced a 90 percent inhibition.

Turning to `C[C@H](N)C(=O)NCC(=O)N[C@H]1CSSC[C@@H](C(=O)O)NC(=O)[C@H](CO)NC(=O)[C@H]([C@@H](C)O)NC(=O)[C@H](Cc2ccccc2)NC(=O)[C@H]([C@@H](C)O)NC(=O)[C@H](CCCCN)NC(=O)[C@H](Cc2c[nH]c3ccccc23)NC(=O)[C@H](Cc2ccccc2)NC(=O)[C@H](Cc2ccccc2)NC(=O)[C@@H](C)NC(=O)[C@H](CCCCN)NC1=O` [D-Ala^5 -somatostatin], in the assay on insulin, the “effect on basal serum insulin concentration (before alanine infusion)” value is “caused a brief increase in insulin concentration” and the “effect on the increase in insulin concentration/secretion produced by L-alanine” value is recorded as “did not inhibit the increase in insulin secretion”. The “effect on the increase in serum glucagon concentration produced by L-alanine” value in the assay with glucagon is recorded as “did not affect the increase in serum glucagon concentration”. Also, in the assay on growth hormone, the “inhibition of the increase in serum growth hormone concentration” value was 40-50%.
